Source: US20160346291A1, “COMPOSITIONS AND THERAPEUTIC METHODS FOR ACCELERATED PLAQUE REGRESSION” (Resverlogix Corp, priority 2013, published 2016)

Test system: ApoA-I mRNA
Assay: ApoA-I mRNA quantitation in HepG2 cells (real-time PCR)
Assay type: cell-based
Parameters: key: Active: An active compound is one that causes a >15% increase in ApoA-I mRNA at a concentration less than or equal to 100 uM
Conditions: concentration less than or equal to 100 uM, fold induction relative to DMSO control
Procedure: At time of harvesting, the spent media was removed from the HepG2 cells and immediately placed on ice (for immediate use) or at −80° C. (for future use) in ApoA-I and albumin ELISAs. The cells remaining in the plate wells were rinsed in 200 μL PBS. PBS was carefully removed to avoid removing any loosely attached cells.
Once the PBS was removed, 85 μL cell lysis solution was added to the cells in each well and incubated for 5-10 min at room temperature, to allow for complete cell lysis and detachment. mRNA was then prepared using the “mRNA Catcher PLUS plate” from Invitrogen, according to the protocol supplied. After the last wash, as much wash buffer as possible was aspirated without allowing the wells to dry. Elution Buffer (E3, 80 μL) was then added to each well. mRNA was then eluted by incubating the mRNA Catcher PLUS plate with Elution Buffer for 5 min at 68° C. and then immediately placing the plate on ice.
The eluted mRNA was isolated and then used in a one-step real-time […]-PCR reaction, using components of the Ultra Sense Kit together with Applied Biosystems primer-probe mixes. Real-time PCR data was analyzed, using the Ct values, to determine the fold induction of each unknown sample, relative to the control (that is, relative to the control for each independent DMSO concentration).
The following compounds of Formula I were evaluated in this assay. An active compound is one that causes a >15% increase in ApoA-I mRNA at a concentration less than or equal to 100 uM.

Row | Structure (SMILES) | Effect on ApoA-I mRNA levels
1 | Oc1ccc(-c2cc3ncccc3cn2)cc1 [4-(1,6-naphthyridin-7-yl)phenol] | Active
2 | N=C(N)NCCCC(N)C(=O)Oc1ccc(-c2cc3ccccc3c(=O)[nH]2)cc1 (stereo not drawn) [4-(1-Oxo-1,2-dihydroisoquinolin-3-yl)phenyl 2-amino-5-guanidinopentanoate] | Active
3 | COc1cc(OC)c2cnc(-c3cc(C)c(OCCN4CCOCC4)c(C)c3)cc2c1 [4-(2-(4-(6,8-dimethoxyisoquinolin-3-yl)-2,6-dimethylphenoxy)ethyl)morpholine] | Active
4 | CCOc1nc(-c2cc(C)c(O)c(C)c2)nc2cc(OC)cc(OC)c12 [4-(4-ethoxy-5,7-dimethoxyquinazolin-2-yl)-2,6-dimethylphenol] | Inactive
5 | COc1cc(OC)c2cnc(-c3cc(C)c(O)c(C)c3)cc2c1 [4-(6,8-dimethoxyisoquinolin-3-yl)-2,6-dimethylphenol] | Active
6 | Cl.Cl.Cl.Cl.N=C(N)NCCCC(N)C(=O)Oc1ccc(-c2cc3ccccc3cn2)cc1 (stereo not drawn) [4-(Isoquinolin-3-yl)phenyl 2-amino-5-guanidinopentanoate tetrahydrochloride] | Active
7 | Oc1ccc(-c2cc3ccccc3cn2)cc1 [4-Isoquinolin-3-yl-phenol] | Active
8 | COc1cc(OC)c2c(=O)[nH]c(-c3cc(C)c(OCCNS(=O)(=O)c4ccc(Cl)cc4)c(C)c3)nc2c1 [4-chloro-N-(2-(4-(5,7-dimethoxy-4-oxo-3,4-dihydroquinazolin-2-yl)-2,6-dimethylphenoxy)ethyl)benzenesulfonamide] | Active
9 | Cc1cc(-c2nc3cc(Cl)cc(Cl)c3c(=O)[nH]2)cc(C)c1OCCO [5,7-dichloro-2-(4-(2-hydroxyethoxy)-3,5-dimethylphenyl)quinazolin-4(3H)-one] | Active
10 | COc1cc(OC)c2c(=O)[nH]c(-c3cccc([N+](=O)[O-])c3)nc2c1 [5,7-dimethoxy-2-(3-nitrophenyl)quinazolin-4(3H)-one] | Inactive
11 | COCCOc1c(C)cc(-c2nc3cc(OC)cc(OC)c3c(=O)[nH]2)cc1C [5,7-dimethoxy-2-(4-(2-methoxyethoxy)-3,5-dimethylphenyl)quinazolin-4(3H)-one] | Active
12 | COc1cc(OC)c2c(=O)[nH]c(-c3ccc(N4CCN(C)CC4)cc3)nc2c1 [5,7-dimethoxy-2-(4-(4-methylpiperazin-1-yl)phenyl)quinazolin-4(3H)-one] | Active
13 | COc1cc(OC)c2c(=O)[nH]c(-c3ccc(CN4CCN(C)CC4)cc3)nc2c1 [5,7-dimethoxy-2-(4-((4-methylpiperazin-1-yl)methyl)phenyl)quinazolin-4(3H)-one] | Active
14 | COc1cc(OC)c2c(=O)[nH]c(-c3ccc(CN4CCOCC4)cc3)nc2c1 [5,7-dimethoxy-2-(4-(morpholinomethyl)phenyl)quinazolin-4(3H)-one] | Active
15 | COc1cc(OC)c2c(=O)[nH]c(-c3cc(C)c(OC)c(C)c3)nc2c1 [5,7-dimethoxy-2-(4-methoxy-3,5-dimethylphenyl)quinazolin-4(3H)-one] | Active
16 | COc1cc(OC)c2c(=O)[nH]c(-c3ccc(OC)c(CN4CCOCC4)c3)nc2c1 [5,7-dimethoxy-2-(4-methoxy-3-(morpholinomethyl)phenyl)quinazolin-4(3H)-one] | Active
17 | COc1ccc(-c2nc3cc(OC)cc(OC)c3c(=O)[nH]2)cc1 [5,7-dimethoxy-2-(4-methoxyphenyl)quinazolin-4(3H)-one] | Active
18 | COc1cc(OC)c2c(=O)[nH]c(-c3ccc(N4CCOCC4)cc3)nc2c1 [5,7-dimethoxy-2-(4-morpholinophenyl)quinazolin-4(3H)-one] | Active
19 | COc1cc(OC)c2c(=O)[nH]c(-c3cccc(-c4ccc(S(C)(=O)=O)cc4)n3)nc2c1 [5,7-dimethoxy-2-(6-(4-(methylsulfonyl)phenyl)pyridin-2-yl)quinazolin-4(3H)-one] | Active
20 | COc1cc(OC)c2c(=O)[nH]c(-c3cccc(-c4ccc(SC)cc4)n3)nc2c1 [5,7-dimethoxy-2-(6-(4-(methylthio)phenyl)pyridin-2-yl)quinazolin-4(3H)-one] | Active

Row | Structure (SMILES) | Effect on ApoA-I mRNA levels
21 | COc1cc(OC)c2c(=O)[nH]c(-c3cccc(C)n3)nc2c1 [5,7-dimethoxy-2-(6-methylpyridin-2-yl)quinazolin-4(3H)-one] | Active
22 | COc1cc(OC)c2c(=O)[nH]c(-c3ccccn3)nc2c1 [5,7-dimethoxy-2-(pyridin-2-yl)quinazolin-4(3H)-one] | Active
23 | COc1cc(OC)c2c(=O)[nH]c(-c3ccncc3)nc2c1 [5,7-dimethoxy-2-(pyridin-4-yl)quinazolin-4(3H)-one] | Active
24 | COc1cc(OC)c2c(=O)[nH]c(-c3ccccc3C)nc2c1 [5,7-dimethoxy-2-o-tolylquinazolin-4(3H)-one] | Active
25 | COc1cc(OC)c2c(=O)[nH]c(-c3ccc(C)cc3)nc2c1 [5,7-dimethoxy-2-p-tolylquinazolin-4(3H)-one] | Inactive
26 | COc1cc(O)c2c(=O)[nH]c(-c3cc(C)c(O)c(C)c3)nc2c1 [5-hydroxy-2-(4-hydroxy-3,5-dimethylphenyl)-7-methoxyquinazolin-4(3H)-one] | Active
27 | COc1cc2c(c(OC)c1)S(=O)(=O)NC(c1cc(C)c(O)c(C)c1)=C2 [6,8-dimethoxy-3-(4-hydroxy-3,5-dimethylphenyl)-2H-1,2-benzothiazine-1,1-dioxide] | Active
28 | Cc1cc(-c2nc3ccc(Br)cc3c(=O)[nH]2)cc(C)c1OCCO[Si](C)(C)C(C)(C)C [6-bromo-2-(4-(2-(tert-butyldimethylsilyloxy)ethoxy)-3,5-dimethylphenyl)quinazolin-4(3H)-one] | Active
29 | Cc1cc(-c2nc3ccc(Br)cc3c(=O)[nH]2)cc(C)c1OCCO [6-bromo-2-(4-(2-hydroxyethoxy)-3,5-dimethylphenyl)quinazolin-4(3H)-one] | Active
30 | Cc1cc(-c2nc3ccc(Br)cc3c(=O)[nH]2)cc(C)c1O [6-bromo-2-(4-hydroxy-3,5-dimethylphenyl)quinazolin-4(3H)-one] | Active
31 | COc1cc(OC)c2c(=O)[nH]c(-c3cc(C)c(OCCN4CCOCC4)c(C)c3)cc2n1 [7-(3,5-dimethyl-4-(2-morpholinoethoxy)phenyl)-2,4-dimethoxy-1,6-naphthyridin-5(6H)-one] | Active
32 | COc1cc(OC)c2c(=O)[nH]c(-c3cc(C)c(OCCO)c(C)c3)cc2n1 [7-(4-(2-hydroxyethoxy)-3,5-dimethylphenyl)-2,4-dimethoxy-1,6-naphthyridin-5(6H)-one] | Active
33 | Cc1cc(-c2cc3ncccc3c(=O)[nH]2)cc(C)c1O [7-(4-hydroxy-3,5-dimethylphenyl)-1,6-naphthyridin-5(6H)-one] | Active
34 | Cc1cc(-c2cc3nc(OC(C)C)cc(OC(C)C)c3c(=O)[nH]2)cc(C)c1O [7-(4-hydroxy-3,5-dimethylphenyl)-2,4-diisopropoxy-1,6-naphthyridin-5(6H)-one] | Active
35 | COc1cc(OC)c2c(=O)[nH]c(-c3cc(C)c(O)c(C)c3)cc2n1 [7-(4-hydroxy-3,5-dimethylphenyl)-2,4-dimethoxy-1,6-naphthyridin-5(6H)-one] | Active
36 | COc1cc(OC)c2c(=O)[nH]c(-c3cc(C)c(/N=C/N(C)C)c(C)c3)nc2c1 [(E)-N′-(4-(5,7-dimethoxy-4-oxo-3,4-dihydroquinazolin-2-yl)-2,6-dimethylphenyl)-N,N-dimethylformimidamide] | Active
37 | CNC(=O)c1ccccc1C(=O)NCCOc1c(C)cc(-c2nc3cc(OC)cc(OC)c3c(=O)[nH]2)cc1C [N1-(2-(4-(5,7-dimethoxy-4-oxo-3,4-dihydroquinazolin-2-yl)-2,6-dimethylphenoxy)ethyl)-N2-methylphthalamide] | Active
38 | CC(=O)Nc1ccc2nc(-c3cc(C)c(OCCO)c(C)c3)[nH]c(=O)c2c1 [N-(2-(4-(2-hydroxyethoxy)-3,5-dimethylphenyl)-4-oxo-3,4-dihydroquinazolin-6-yl)acetamide] | Active
39 | COc1cc(OC)c2c(=O)[nH]c(-c3cc(C)c(OCCNC(=O)c4ccc(C)cc4)c(C)c3)nc2c1 [N-(2-(4-(5,7-Dimethoxy-4-oxo-3,4-dihydroquinazolin-2-yl)-2,6-dimethylphenoxy)ethyl)-4-methylbenzamide] | Active
